This test deals with TNAP (Homo sapiens (Human), UniProt P05186). Put plainly: TNAP (PPi) inhibition assay, pyrophosphate as substrate. The test is classed as biochemical. The method, then:
Expression plasmids containing a secreted epitope-tagged TNAP were transfected into COS-1 cells for transient expression. The medium was replaced with Opti-MEM 24 h later and serum-free media containing secreted proteins was collected 60 hours after electroporation. The medium was dialyzed against TBS containing 1 mM MgCl2 and […] (to remove phosphate) and filtered through a […] cellulose acetate filter.
To determine the inhibition selectivity for inhibitor candidates, human TNAP, PLAP or IAP were added to microtiter plates followed by addition of the substrate pNPP (0.5 mM) and activity was measured in 1 M DEA-HCl buffer, pH 9.8 or in 1 M Tris-HCl buffer, pH 7.5, containing 1 mM MgCl2 and 20 μM ZnCl2, in the presence of potential inhibitors (0-30 μM). TNAP, PLAP and IAP activities were adjusted to an approximate λA405 nm, equivalent to 1, measured after 30 min. Residual AP activity in the presence of inhibitors was expressed as percentage of the control activity. To investigate the mechanism of inhibition, double reciprocal plots of enzyme activity (expressed as mA405 nm min−1) vs. substrate concentration were constructed, in the presence of various concentrations of added inhibitors (0-30 μM). The y-axis intercepts of the 1/v vs. 1/[S] plots, were then plotted vs. [I] to graphically extract Ki values as the x-intercept in this plot. […] Inhibitors were further tested and sorted based on their kinetic properties at pH 7.4 using PPi, the relevant natural substrate of TNAP. […] Amounts of released phosphate were measured using the Biomol Green Reagent (Biomol Research Laboratories, Inc., Plymouth Meeting, Pa.).

By IC50 is commonly meant the point on the concentration scale where inhibition reaches its midpoint. A higher IC50 goes with lower potency.

`COc1ccc(OC)c(S(=O)(=O)Nc2cncc(-c3cccc(C)c3)c2)c1` [Example III-49, 2,5-Dimethoxy-N-(5-m-tolyl-pyridin-3-yl)-benzenesulfonamide] returned an IC50 of 100 to 1000 nM. Next, `COc1ccc(Br)cc1S(=O)(=O)Nc1cncc(-c2cccc(C)c2)c1` [Example III-50, 5-Bromo-2-methoxy-N-(5-m-tolyl-pyridin-3-yl)-benzenesulfonamide]: 100 to 1000 nM. As for `COc1ccc(OC)c(S(=O)(=O)Nc2cncc(-c3cccc(Cl)c3)c2)c1` [Example III-52, N-[5-(3-Chloro-phenyl)-pyridin-3-yl]-2,5-dimethoxy-benzenesulfonamide], the figure is 100 to 1000 nM. Next, `COc1ccc(Br)cc1S(=O)(=O)Nc1cncc(-c2cccc(Cl)c2)c1` [Example III-53, 5-Bromo-N-[5-(3-chloro-phenyl)-pyridin-3-yl]-2-methoxy-benzenesulfonamide]: 100 to 1000 nM; `COc1ccc(Cl)cc1S(=O)(=O)Nc1cncc(-c2cccc(Cl)c2)c1` [Example III-54, 5-Chloro-N-[5-(3-chloro-phenyl)-pyridin-3-yl]-2-methoxy-benzenesulfonamide]: 100 to 1000 nM; `COc1ccc(-c2cncc(NS(=O)(=O)c3cc(OC)ccc3OC)c2)c(OC)c1` [Example III-55, N-(5-(2,4-Dimethoxyphenyl)pyridin-3-yl)-2,5-dimethoxybenzenesulfonamide]: less than 100 nM. Turning to `COc1ccc(-c2cncc(NS(=O)(=O)c3cc(Br)ccc3OC)c2)c(OC)c1` [Example III-56, 5-Bromo-N-(5-(2,4-dimethoxyphenyl)pyridin-3-yl)-2-methoxybenzenesulfonamide], the half-inhibitory concentration (IC50) is less than 100 nM.

The molecule `COc1ccc(-c2cncc(NS(=O)(=O)c3cc(Cl)ccc3OC)c2)c(OC)c1` [Example III-57, 5-Chloro-N-(5-(2,4-dimethoxyphenyl)pyridin-3-yl)-2-methoxybenzenesulfonamide] yielded an IC50 of less than 100 nM. As for `COc1ccc(OC)c(S(=O)(=O)Nc2cncc(-c3ccccn3)c2)c1` [Example III-58, N-([2,3′-Bipyridin]-5′-yl)-2,5-dimethoxybenzenesulfonamide], the figure is less than 100 nM. As for `COc1ccc(Br)cc1S(=O)(=O)Nc1cncc(-c2ccccn2)c1` [Example III-59, N-([2,3′-Bipyridin]-5′-yl)-5-bromo-2-methoxybenzenesulfonamide], the figure is less than 100 nM; as for `COc1ccc(Cl)cc1S(=O)(=O)Nc1cncc(-c2ccccn2)c1` [Example III-60, N-([2,3′-Bipyridin]-5′-yl)-5-chloro-2-methoxybenzenesulfonamide], less than 100 nM; as for `COc1ccc(Br)cc1S(=O)(=O)Nc1cncc(-c2cccnc2)c1` [Example III-62, N-([3,3′-Bipyridin]-5-yl)-5-bromo-2-methoxybenzenesulfonamide], less than 100 nM. Next, `COc1ccc(Br)cc1S(=O)(=O)Nc1cncc(-c2ccncc2)c1` [Example III-65, N-([3,4′-Bipyridin]-5-yl)-5-bromo-2-methoxybenzenesulfonamide]: less than 100 nM; `COc1ccc(OC)c(S(=O)(=O)Nc2cncc(-c3ccco3)c2)c1` [Example III-67, N-(5-(Furan-2-yl)pyridin-3-yl)-2,5-dimethoxybenzenesulfonamide]: less than 100 nM; `COc1ccc(Br)cc1S(=O)(=O)Nc1cncc(-c2ccco2)c1` [Example III-68, 5-Bromo-N-(5-(furan-2-yl)pyridin-3-yl)-2-methoxybenzenesulfonamide]: less than 100 nM.

`COc1ccc(Cl)cc1S(=O)(=O)Nc1cncc(-c2ccco2)c1` [Example III-69, 5-Chloro-N-(5-(furan-2-yl)pyridin-3-yl)-2-methoxybenzenesulfonamide]: the half-maximal inhibitory concentration (IC50) was less than 100 nM.

In turn, `COc1ccc(OC)c(S(=O)(=O)Nc2cncc(-c3ccoc3)c2)c1` [Example III-70, N-(5-(Furan-3-yl)pyridin-3-yl)-2,5-dimethoxybenzenesulfonamide] gave an IC50 of less than 100 nM. Next, `COc1ccc(Br)cc1S(=O)(=O)Nc1cncc(-c2ccoc2)c1` [Example III-71, 5-Bromo-N-(5-(furan-3-yl)pyridin-3-yl)-2-methoxybenzenesulfonamide]: less than 100 nM; `COc1ccc(Cl)cc1S(=O)(=O)Nc1cncc(-c2ccoc2)c1` [Example III-72, 5-Chloro-N-(5-(furan-3-yl)pyridin-3-yl)-2-methoxybenzenesulfonamide]: less than 100 nM. As for `COc1ccc(OC)c(S(=O)(=O)Nc2cncc(-c3cccs3)c2)c1` [Example III-73, 2,5-Dimethoxy-N-(5-(thiophen-2-yl)pyridin-3-yl)benzenesulfonamide], the figure is less than 100 nM; as for `COc1ccc(Br)cc1S(=O)(=O)Nc1cncc(-c2cccs2)c1` [Example III-74, 5-Bromo-2-methoxy-N-(5-(thiophen-2-yl)pyridin-3-yl)benzenesulfonamide], less than 100 nM; as for `COc1ccc(Cl)cc1S(=O)(=O)Nc1cncc(-c2cccs2)c1` [Example III-75, 5-Chloro-2-methoxy-N-(5-(thiophen-2-yl)pyridin-3-yl)benzenesulfonamide], less than 100 nM. As for `COc1ccc(OC)c(S(=O)(=O)Nc2cncc(-c3ccsc3)c2)c1` [Example III-76, 2,5-Dimethoxy-N-(5-(thiophen-3-yl)pyridin-3-yl)benzenesulfonamide], the figure is less than 100 nM; as for `COc1ccc(Br)cc1S(=O)(=O)Nc1cncc(-c2ccsc2)c1` [Example III-77, 5-Bromo-2-methoxy-N-(5-(thiophen-3-yl)pyridin-3-yl)benzenesulfonamide], less than 100 nM. Consider `COc1ccc(Cl)cc1S(=O)(=O)Nc1cncc(-c2ccsc2)c1` [Example III-78, 5-Chloro-2-methoxy-N-(5-(thiophen-3-yl)pyridin-3-yl)benzenesulfonamide], for which the IC50 was less than 100 nM. Molecule `COc1ccc(OC)c(S(=O)(=O)Nc2cncc(-c3nccs3)c2)c1` [Example III-79, 2,5-Dimethoxy-N-(5-(thiazol-2-yl)pyridin-3-yl)benzenesulfonamide] had an IC50 of less than 100 nM. Next, `COc1ccc(Br)cc1S(=O)(=O)Nc1cncc(-c2nccs2)c1` [Example III-80, 5-Bromo-2-methoxy-N-(5-(thiazol-2-yl)pyridin-3-yl)benzenesulfonamide]: less than 100 nM. Next, `COc1ccc(Cl)cc1S(=O)(=O)Nc1cncc(-c2nccs2)c1` [Example III-81, 5-Chloro-2-methoxy-N-(5-(thiazol-2-yl)pyridin-3-yl)benzenesulfonamide]: less than 100 nM; `COc1ccc(OC)c(S(=O)(=O)Nc2cncc(-c3cncs3)c2)c1` [Example III-82, 2,5-Dimethoxy-N-(5-(thiazol-5-yl)pyridin-3-yl)benzenesulfonamide]: less than 100 nM. Next, `COc1ccc(Br)cc1S(=O)(=O)Nc1cncc(-c2cncs2)c1` [Example III-83, 5-Bromo-2-methoxy-N-(5-(thiazol-5-yl)pyridin-3-yl)benzenesulfonamide]: less than 100 nM; `COc1ccc(Cl)cc1S(=O)(=O)Nc1cncc(-c2cncs2)c1` [Example III-84, 5-Chloro-2-methoxy-N-(5-(thiazol-5-yl)pyridin-3-yl)benzenesulfonamide]: less than 100 nM.
